In patent US9212182B2, “Bicyclic sulfonamide compounds as sodium channel inhibitors” (AMGEN INC., priority 2013, dated 2015):
Where two headings read alike, the source gives them in different places.

Target: Nav 1.7 (Homo sapiens (Human), UniProt Q15858)
Assay: in-vitro Nav 1.7 PX (IC50)
Type: cell-based

Nav 1.7, sequence (Q15858 whole entry): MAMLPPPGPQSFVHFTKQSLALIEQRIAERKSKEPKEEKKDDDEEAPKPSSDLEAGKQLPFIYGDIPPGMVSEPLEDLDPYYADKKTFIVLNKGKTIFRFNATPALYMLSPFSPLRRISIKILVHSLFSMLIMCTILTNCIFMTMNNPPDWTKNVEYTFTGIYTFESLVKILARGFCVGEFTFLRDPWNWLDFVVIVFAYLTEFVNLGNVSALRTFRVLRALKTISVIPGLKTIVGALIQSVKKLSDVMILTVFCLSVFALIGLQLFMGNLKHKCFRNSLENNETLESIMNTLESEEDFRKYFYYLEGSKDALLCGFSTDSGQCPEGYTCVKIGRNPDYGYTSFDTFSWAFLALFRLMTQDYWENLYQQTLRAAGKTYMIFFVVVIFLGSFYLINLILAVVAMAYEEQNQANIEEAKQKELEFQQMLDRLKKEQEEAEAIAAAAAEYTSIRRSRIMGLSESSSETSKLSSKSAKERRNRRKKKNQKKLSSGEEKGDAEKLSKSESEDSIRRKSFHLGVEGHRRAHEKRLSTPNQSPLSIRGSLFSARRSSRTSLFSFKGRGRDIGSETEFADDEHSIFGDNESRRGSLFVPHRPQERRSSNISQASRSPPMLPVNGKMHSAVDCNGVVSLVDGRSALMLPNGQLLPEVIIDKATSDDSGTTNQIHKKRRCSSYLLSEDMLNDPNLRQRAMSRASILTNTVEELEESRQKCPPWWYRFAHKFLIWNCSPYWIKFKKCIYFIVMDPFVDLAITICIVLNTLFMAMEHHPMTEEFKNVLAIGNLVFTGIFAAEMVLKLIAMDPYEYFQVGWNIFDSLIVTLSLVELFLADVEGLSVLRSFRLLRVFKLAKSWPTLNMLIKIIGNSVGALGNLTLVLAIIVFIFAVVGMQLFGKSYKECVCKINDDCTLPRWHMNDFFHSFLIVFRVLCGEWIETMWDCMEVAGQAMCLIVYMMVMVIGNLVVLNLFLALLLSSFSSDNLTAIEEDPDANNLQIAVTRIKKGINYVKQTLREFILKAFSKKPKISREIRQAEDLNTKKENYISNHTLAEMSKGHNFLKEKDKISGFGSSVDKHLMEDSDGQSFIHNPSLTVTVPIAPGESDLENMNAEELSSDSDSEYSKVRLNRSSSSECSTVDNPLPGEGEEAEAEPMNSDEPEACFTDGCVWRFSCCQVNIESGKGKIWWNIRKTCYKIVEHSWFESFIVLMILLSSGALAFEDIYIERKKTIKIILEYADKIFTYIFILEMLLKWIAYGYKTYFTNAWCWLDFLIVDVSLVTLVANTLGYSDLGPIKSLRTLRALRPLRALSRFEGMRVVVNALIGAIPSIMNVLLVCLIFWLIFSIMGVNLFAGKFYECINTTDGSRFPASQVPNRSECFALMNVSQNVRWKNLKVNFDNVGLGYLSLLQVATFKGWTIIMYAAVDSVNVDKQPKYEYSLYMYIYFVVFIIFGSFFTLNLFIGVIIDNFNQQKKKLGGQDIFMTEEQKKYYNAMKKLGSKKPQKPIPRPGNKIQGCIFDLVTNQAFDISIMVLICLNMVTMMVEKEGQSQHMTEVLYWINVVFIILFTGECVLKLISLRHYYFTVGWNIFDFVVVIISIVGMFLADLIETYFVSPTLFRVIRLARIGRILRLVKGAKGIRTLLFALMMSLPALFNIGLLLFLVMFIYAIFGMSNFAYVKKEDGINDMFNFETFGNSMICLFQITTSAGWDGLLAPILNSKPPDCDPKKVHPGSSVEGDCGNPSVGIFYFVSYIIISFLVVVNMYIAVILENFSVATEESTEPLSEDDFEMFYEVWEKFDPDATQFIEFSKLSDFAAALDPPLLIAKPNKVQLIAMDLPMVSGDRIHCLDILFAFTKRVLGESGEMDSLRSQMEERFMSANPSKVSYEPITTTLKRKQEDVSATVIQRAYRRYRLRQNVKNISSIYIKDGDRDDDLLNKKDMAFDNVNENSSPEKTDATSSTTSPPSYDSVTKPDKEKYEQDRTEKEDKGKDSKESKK

Q: With COc1cc(-c2cc(F)cc(C(F)(F)F)c2)ccc1-n1c(=O)ccc2cc(S(=O)(=O)Nc3cnccn3)ccc21 [Example 1094, 1-(3′-fluoro-3-methoxy-5′-(trifluoromethyl)-4-biphenylyl)-2-oxo-N-2-pyrazinyl-1,2-dihydro-6-quinolinesulfonamide] as the molecule, how does the IC50 (in-vitro Nav 1.7 PX data) read?
A: The IC50 was 69 nM.

Q: Which IC50 (in-vitro Nav 1.7 PX data) does the source give for COc1cc(-c2ccc(C)c(C)c2)ccc1-n1c(=O)ccc2cc(S(=O)(=O)Nc3ccon3)ccc21 [Example 812, N-3-isoxazolyl-1-(3-methoxy-3′,4′-dimethyl-4-biphenylyl)-2-oxo-1,2-dihydro-6-quinolinesulfonamide] here?
A: Its IC50 is 73 nM.

Q: Which IC50 (in-vitro Nav 1.7 PX data) does the source give for COc1cc(-c2cc(OC)c(-n3c(=O)ccc4cc(S(=O)(=O)Nc5ccon5)ccc43)cc2F)c(Cl)cn1 [Example 759, 1-(4-(5-chloro-2-methoxy-4-pyridinyl)-5-fluoro-2-methoxyphenyl)-N-3-isoxazolyl-2-oxo-1,2-dihydro-6-quinolinesulfonamide] here?
A: The IC50 was 100 nM.

Q: How did the IC50 (in-vitro Nav 1.7 PX data (PatchXpress)) turn out when Cc1cc(-c2cc(OCC#N)c(-n3c(=O)ccc4cc(S(=O)(=O)Nc5ccon5)ccc43)cc2F)ccc1Cl [Example 622, 1-(4′-chloro-5-(cyanomethoxy)-2-fluoro-3′-methyl-[1,1′-biphenyl]-4-yl)-N-(isoxazol-3-yl)-2-oxo-1,2-dihydroquinoline-6-sulfonamide] was run?
A: The IC50 was 312 nM.

Q: For COc1cc(-c2cccc(C)c2)c(F)cc1-n1c(=O)ccc2cc(S(=O)(=O)Nc3ccon3)ccc21 (atropisomer, axis not shown; (P)) [Example 522, (P)-1-(2-fluoro-5-methoxy-3′-methyl-4-biphenylyl)-N-3-isoxazolyl-2-oxo-1,2-dihydro-6-quinolinesulfonamide], which IC50 (in-vitro PatchXpress (PX)) is on record?
A: The IC50 was 9 nM.

Q: COc1cc(C)cc(-c2cc(OC)c(-n3c(=O)ccc4cc(S(=O)(=O)Nc5ncccn5)ccc43)cc2C)c1 [Example 967, 1-(3′,5-dimethoxy-2,5′-dimethyl-4-biphenylyl)-2-oxo-N-2-pyrimidinyl-1,2-dihydro-6-quinolinesulfonamide] was tested. Which IC50 (in-vitro Nav 1.7 PX data) did it give?
A: The IC50 was 14 nM.

Q: With COc1ccc(-c2cccnc2F)cc1-n1c(=O)ccc2cc(S(=O)(=O)Nc3ccon3)ccc21 [Example 495, 1-(5-(2-fluoro-3-pyridinyl)-2-methoxyphenyl)-N-3-isoxazolyl-2-oxo-1,2-dihydro-6-quinolinesulfonamide] as the molecule, how does the IC50 read?
A: Its IC50 is 2450 nM.

Q: Which IC50 (in-vitro Nav 1.7 PX data) does the source give for COc1cc(-c2ccc(Cl)c(C)c2)ccc1-n1c(=O)ccc2cc(S(=O)(=O)Nc3ccc(F)cn3)ccc21 (atropisomer, axis not shown; (P)) [Example 689, (P)-1-(4′-chloro-3-methoxy-3′-methyl-4-biphenylyl)-N-(5-fluoro-2-pyridinyl)-2-oxo-1,2-dihydro-6-quinolinesulfonamide] here?
A: Its IC50 is 50 nM.

Q: How did the IC50 turn out when COc1nc(C2CC2)c(Cl)cc1-n1c(=O)ccc2cc(S(=O)(=O)Nc3ccon3)ccc21 (atropisomer, axis not shown; (M)) [Example 1229, (M)-1-(5-chloro-6-cyclopropyl-2-methoxy-3-pyridinyl)-N-3-isoxazolyl-2-oxo-1,2-dihydro-6-quinolinesulfonamide] was run?
A: The IC50 was 17200 nM.

Q: How did the IC50 (in-vitro Nav 1.7 PX data) turn out when COc1cc(-c2ccc(C#N)cc2)c(F)cc1-n1c(=O)ccc2cc(S(=O)(=O)Nc3ccon3)ccc21 [Example 754, 1-(4′-cyano-2-fluoro-5-methoxy-4-biphenylyl)-N-3-isoxazolyl-2-oxo-1,2-dihydro-6-quinolinesulfonamide] was run?
A: Its IC50 is 132 nM.

Q: Which IC50 does the source give for COc1cc(-c2ccc(F)c(Cl)c2)ccc1-n1c(=O)ccc2cc(S(=O)(=O)Nc3ccon3)ccc21 (atropisomer, axis not shown; (P)) [Example 578, (P)-1-(3′-chloro-4′-fluoro-3-methoxy-4-biphenylyl)-N-3-isoxazolyl-2-oxo-1,2-dihydro-6-quinolinesulfonamide] here?
A: The IC50 was 16 nM.

Q: Which IC50 does the source give for COc1ccc(-c2cc(F)cnc2OC)cc1-n1c(=O)ccc2cc(S(=O)(=O)Nc3ccon3)ccc21 [Example 488, 1-(5-(5-fluoro-2-methoxy-3-pyridinyl)-2-methoxyphenyl)-N-3-isoxazolyl-2-oxo-1,2-dihydro-6-quinolinesulfonamide] here?
A: Its IC50 is 299 nM.

Q: Which IC50 (in-vitro Nav 1.7 PX data) does the source give for COc1cc(-c2ccc(Cl)cc2)c(F)cc1-n1c(=O)ccc2cc(S(=O)(=O)Nc3ncc(F)cn3)ccc21 [Example 750, 1-(4′-chloro-2-fluoro-5-methoxy-4-biphenylyl)-N-(5-fluoro-2-pyrimidinyl)-2-oxo-1,2-dihydro-6-quinolinesulfonamide] here?
A: The IC50 was 10 nM.

Q: With COc1cc(C)cc(-c2cc(OC)c(-n3c(=O)ccc4cc(S(=O)(=O)Nc5ccon5)ccc43)cc2F)c1 [Example 708, 1-(2-fluoro-3′,5-dimethoxy-5′-methyl-4-biphenylyl)-N-3-isoxazolyl-2-oxo-1,2-dihydro-6-quinolinesulfonamide] as the molecule, how does the IC50 (in-vitro Nav 1.7 PX data) read?
A: Its IC50 is 10 nM.

Q: For CCc1cccc(-c2cc(OC)c(-n3c(=O)ccc4cc(S(=O)(=O)Nc5ccon5)ccc43)cc2F)c1 [Example 791, 1-(3′-ethyl-2-fluoro-5-methoxy-4-biphenylyl)-N-3-isoxazolyl-2-oxo-1,2-dihydro-6-quinolinesulfonamide], which IC50 (in-vitro Nav 1.7 PX data) is on record?
A: Its IC50 is 9 nM.

Q: How did the IC50 (in-vitro Nav 1.7 PX data) turn out when COc1cc(-c2cccc(C(F)(F)F)c2)c(F)cc1-n1c(=O)ccc2cc(S(=O)(=O)Nc3ccon3)c(F)cc21 [Example 980, 7-fluoro-1-(2-fluoro-5-methoxy-3′-(trifluoromethyl)-4-biphenylyl)-N-3-isoxazolyl-2-oxo-1,2-dihydro-6-quinolinesulfonamide] was run?
A: Its IC50 is 22 nM.

Q: For COc1ccc(Cl)cc1-c1cc(OC)c(-n2c(=O)ccc3cc(S(=O)(=O)Nc4ccon4)ccc32)cc1F [Example 744, 1-(5′-chloro-2-fluoro-2′,5-dimethoxy-4-biphenylyl)-N-3-isoxazolyl-2-oxo-1,2-dihydro-6-quinolinesulfonamide], which IC50 (in-vitro Nav 1.7 PX data) is on record?
A: The IC50 was 7 nM.

Q: With COc1cc(-c2cccc(OC(F)(F)F)c2)c(F)cc1-n1c(=O)ccc2cc(S(=O)(=O)Nc3ccon3)ccc21 [Example 728, 1-(2-fluoro-5-methoxy-3′-(trifluoromethoxy)-4-biphenylyl)-N-3-isoxazolyl-2-oxo-1,2-dihydro-6-quinolinesulfonamide] as the molecule, how does the IC50 (in-vitro Nav 1.7 PX data) read?
A: The IC50 was 8 nM.

Q: Which IC50 (in-vitro Nav 1.7 PX data) does the source give for COc1cc(-c2ccc(Cl)c(C)c2)c(F)cc1-n1c(=O)ccc2cc(S(=O)(=O)Nc3ccc(F)cn3)ccc21 (atropisomer, axis not shown; (P)) [Example 693, (P)-1-(4′-chloro-2-fluoro-5-methoxy-3′-methyl-4-biphenylyl)-N-(5-fluoro-2-pyridinyl)-2-oxo-1,2-dihydro-6-quinolinesulfonamide] here?
A: Its IC50 is 186 nM.

Q: For COc1cc(-c2cc(OC)c(-n3c(=O)ccc4cc(S(=O)(=O)Nc5ccnc(C)n5)ccc43)cc2F)ccc1F [Example 1008, 1-(2,4′-difluoro-3′,5-dimethoxy-4-biphenylyl)-N-(2-methyl-4-pyrimidinyl)-2-oxo-1,2-dihydro-6-quinolinesulfonamide], which IC50 (in-vitro Nav 1.7 PX data) is on record?
A: The IC50 was 210 nM.

Q: COc1cc(Cl)cc(-c2ccc(-n3c(=O)ccc4cc(S(=O)(=O)Nc5cccnn5)ccc43)c(OC)c2)c1 [Example 928, 1-(3′-chloro-3,5′-dimethoxy-4-biphenylyl)-2-oxo-N-3-pyridazinyl-1,2-dihydro-6-quinolinesulfonamide] was tested. Which IC50 (in-vitro Nav 1.7 PX data) did it give?
A: The IC50 was 8 nM.

Q: For O=c1ccc2cc(S(=O)(=O)Nc3ccon3)ccc2n1-c1ccc(-c2cccc(C(F)(F)F)c2)cc1 [Example 591, N-3-isoxazolyl-2-oxo-1-(3′-(trifluoromethyl)-4-biphenylyl)-1,2-dihydro-6-quinolinesulfonamide], which IC50 (in-vitro Nav 1.7 PX data) is on record?
A: Its IC50 is 732 nM.

Q: With COc1cc(-c2cc(Cl)cnc2OC)c(F)cc1-n1c(=O)ccc2cc(S(=O)(=O)Nc3ccnc(C)n3)ccc21 [Example 778, 1-(4-(5-chloro-2-methoxy-3-pyridinyl)-5-fluoro-2-methoxyphenyl)-N-(2-methyl-4-pyrimidinyl)-2-oxo-1,2-dihydro-6-quinolinesulfonamide] as the molecule, how does the IC50 (in-vitro Nav 1.7 PX data) read?
A: Its IC50 is 111 nM.

Q: For COc1nc(OCC(F)(F)C(F)(F)F)c(Cl)cc1-n1c(=O)ccc2cc(S(=O)(=O)Nc3ccon3)ccc21 [Example 832, 1-(5-chloro-2-methoxy-6-(2,2,3,3,3-pentafluoropropoxy)-3-pyridinyl)-N-3-isoxazolyl-2-oxo-1,2-dihydro-6-quinolinesulfonamide], which IC50 (in-vitro Nav 1.7 PX data) is on record?
A: Its IC50 is 161 nM.

Q: With COc1ccccc1-c1cc(OC)c(-n2c(=O)ccc3cc(S(=O)(=O)Nc4ccon4)ccc32)cc1F [Example 956, 1-(2-fluoro-2′,5-dimethoxy-4-biphenylyl)-N-3-isoxazolyl-2-oxo-1,2-dihydro-6-quinolinesulfonamide] as the molecule, how does the IC50 (in-vitro Nav 1.7 PX data) read?
A: The IC50 was 99 nM.

Q: How did the IC50 (in-vitro Nav 1.7 PX data) turn out when COc1cc(-c2cccc(C(F)(F)F)c2)ccc1-n1c(=O)ccc2cc(S(=O)(=O)Nc3cc(C)ncn3)ccc21 [Example 946, 1-(3-methoxy-3′-(trifluoromethyl)-4-biphenylyl)-N-(6-methyl-4-pyrimidinyl)-2-oxo-1,2-dihydro-6-quinolinesulfonamide] was run?
A: The IC50 was 24 nM.

Q: COc1cc(Br)c(Cl)cc1-n1c(=O)ccc2cc(S(=O)(=O)Nc3ccon3)ccc21 (atropisomer, axis not shown; (P)) [Example 473, (P)-1-(4-bromo-5-chloro-2-methoxyphenyl)-N-(isoxazol-3-yl)-2-oxo-1,2-dihydroquinoline-6-sulfonamide] was tested. Which IC50 did it give?
A: The IC50 was 178 nM.

Q: How did the IC50 (in-vitro Nav 1.7 PX data) turn out when COc1cc(-c2cc(Cl)cc(Cl)c2)ccc1-n1c(=O)ccc2cc(S(=O)(=O)Nc3ccon3)ccc21 [Example 1023, 1-(3′,5′-dichloro-3-methoxy-4-biphenylyl)-N-3-isoxazolyl-2-oxo-1,2-dihydro-6-quinolinesulfonamide] was run?
A: Its IC50 is 9 nM.

Q: For COc1cc(Cl)cc(-c2cc(OC)c(-n3c(=O)ccc4cc(S(=O)(=O)Nc5ncc(F)cn5)ccc43)cc2F)c1 [Example 929, 1-(3′-chloro-2-fluoro-5,5′-dimethoxy-4-biphenylyl)-N-(5-fluoro-2-pyrimidinyl)-2-oxo-1,2-dihydro-6-quinolinesulfonamide], which IC50 (in-vitro Nav 1.7 PX data) is on record?
A: Its IC50 is 23 nM.

Q: With COc1ccc(-c2cccc(Cl)c2C)cc1-n1c(=O)ccc2cc(S(=O)(=O)Nc3ccon3)ccc21 [Example 895, 1-(3′-chloro-4-methoxy-2′-methyl-3-biphenylyl)-N-3-isoxazolyl-2-oxo-1,2-dihydro-6-quinolinesulfonamide] as the molecule, how does the IC50 (in-vitro Nav 1.7 PX data) read?
A: The IC50 was 1840 nM.

Q: For COc1ccc(-c2cc(OC)c(-n3c(=O)ccc4cc(S(=O)(=O)Nc5ccon5)ccc43)cc2F)cc1C [Example 749, 1-(2-fluoro-4′,5-dimethoxy-3′-methyl-4-biphenylyl)-N-3-isoxazolyl-2-oxo-1,2-dihydro-6-quinolinesulfonamide], which IC50 (in-vitro Nav 1.7 PX data) is on record?
A: The IC50 was 48 nM.
